Measured values taken from ChEMBL document CHEMBL4507315 (2021).

Key:
[1] = tested on: Tyrosine-protein kinase ABL1 (Homo sapiens), P00519 [Q252H]; details: Compound concentration 100.0 nM
[2] = tested on: Tyrosine-protein kinase ABL1 (Homo sapiens), P00519 [T315I]; details: Compound concentration 100.0 nM
[3] = target: Tyrosine-protein kinase ABL2 (Homo sapiens) (UniProt P42684); details: Compound concentration 100.0 nM
[4] = target: Aurora kinase A (Homo sapiens) (UniProt O14965); details: Compound concentration 100.0 nM
[5] = target: Calcium/calmodulin-dependent protein kinase type 1 (Homo sapiens) (UniProt Q14012); details: Compound concentration 100.0 nM
[6] = target: Cyclin-dependent kinase 8 (Homo sapiens) (UniProt P49336); details: Compound concentration 100.0 nM
[7] = target: Cyclin-dependent kinase-like 1 (Homo sapiens) (UniProt Q00532); details: Compound concentration 100.0 nM
[8] = target: Dual specificity protein kinase CLK2 (Homo sapiens) (UniProt P49760); details: Compound concentration 100.0 nM
[9] = target: Macrophage colony-stimulating factor 1 receptor (Homo sapiens) (UniProt P07333); details: Compound concentration 100.0 nM
[10] = target: Megakaryocyte-associated tyrosine-protein kinase (Homo sapiens) (UniProt P42679); details: Compound concentration 100.0 nM
[11] = target: Serine/threonine-protein kinase MRCK gamma (Homo sapiens) (UniProt Q6DT37); details: Compound concentration 100.0 nM
[12] = tested on: Epidermal growth factor receptor (Homo sapiens), P00533 [L861Q]; details: Compound concentration 100.0 nM
[13] = target: Ephrin type-A receptor 8 (Homo sapiens) (UniProt P29322); details: Compound concentration 100.0 nM
[14] = target: Focal adhesion kinase 1 (Homo sapiens) (UniProt Q05397); details: Compound concentration 100.0 nM
[15] = tested on: Receptor-type tyrosine-protein kinase FLT3 (Homo sapiens), P36888 [UNDEFINED MUTATION]; details: Compound concentration 100.0 nM
[16] = tested on: eIF-2-alpha kinase GCN2 (Homo sapiens), Q9P2K8 [S808G]; details: Compound concentration 100.0 nM
[17] = target: Insulin receptor-related protein (Homo sapiens) (UniProt P14616); details: Compound concentration 100.0 nM
[18] = target: Tyrosine-protein kinase JAK1 (Homo sapiens) (UniProt P23458); details: Compound concentration 100.0 nM
[19] = target: LIM domain kinase 1 (Homo sapiens) (UniProt P53667); details: Compound concentration 100.0 nM
[20] = tested on: Leucine-rich repeat serine/threonine-protein kinase 2 (Homo sapiens), Q5S007 [G2019S]; details: Compound concentration 100.0 nM
[21] = target: Mitogen-activated protein kinase kinase kinase kinase 5 (Homo sapiens) (UniProt Q9Y4K4); details: Compound concentration 100.0 nM
[22] = tested on: Hepatocyte growth factor receptor (Homo sapiens), P08581 [Y1235D]; details: Compound concentration 100.0 nM
[23] = target: MAP kinase-interacting serine/threonine-protein kinase 1 (Homo sapiens) (UniProt Q9BUB5); details: Compound concentration 100.0 nM
[24] = target: Serine/threonine-protein kinase 24 (Homo sapiens) (UniProt Q9Y6E0); details: Compound concentration 100.0 nM
[25] = target: Myosin-IIIb (Homo sapiens) (UniProt Q8WXR4); details: Compound concentration 100.0 nM
[26] = target: Serine/threonine-protein kinase 38 (Homo sapiens) (UniProt Q15208); details: Compound concentration 100.0 nM
[27] = target: Serine/threonine-protein kinase NIM1 (Homo sapiens) (UniProt Q8IY84); details: Compound concentration 100.0 nM
[28] = target: Mitogen-activated protein kinase 12 (Homo sapiens) (UniProt P53778); details: Compound concentration 100.0 nM
[29] = target: Phosphatidylinositol 4-phosphate 5-kinase type-1 alpha (Homo sapiens) (UniProt Q99755); details: Compound concentration 100.0 nM
[30] = target: cAMP-dependent protein kinase catalytic subunit alpha (Homo sapiens) (UniProt P17612); details: Compound concentration 100.0 nM
[31] = target: Serine/threonine-protein kinase PknB (Mycobacterium tuberculosis) (UniProt P9WI81); details: Compound concentration 100.0 nM
[32] = target: Serine/threonine-protein kinase D1 (Homo sapiens) (UniProt Q15139); details: Compound concentration 100.0 nM
[33] = target: NUAK family SNF1-like kinase 2 (Homo sapiens) (UniProt Q9H093); details: Compound concentration 100.0 nM
[34] = target: Tyrosine-protein kinase Srms (Homo sapiens) (UniProt Q9H3Y6); details: Compound concentration 100.0 nM
[35] = target: SRSF protein kinase 3 (Homo sapiens) (UniProt Q9UPE1); details: Compound concentration 100.0 nM
[36] = target: Serine/threonine-protein kinase 16 (Homo sapiens) (UniProt O75716); details: Compound concentration 100.0 nM
[37] = target: Serine/threonine-protein kinase 36 (Homo sapiens) (UniProt Q9NRP7); details: Compound concentration 100.0 nM
[38] = target: Serine/threonine-protein kinase TAO3 (Homo sapiens) (UniProt Q9H2K8); details: Compound concentration 100.0 nM
[39] = target: Tyrosine-protein kinase receptor Tie-1 (Homo sapiens) (UniProt P35590); details: Compound concentration 100.0 nM
[40] = target: Serine/threonine-protein kinase tousled-like 2 (Homo sapiens) (UniProt Q86UE8); details: Compound concentration 100.0 nM
[41] = target: Non-receptor tyrosine-protein kinase TNK1 (Homo sapiens) (UniProt Q13470); details: Compound concentration 100.0 nM
[42] = target: High affinity nerve growth factor receptor (Homo sapiens) (UniProt P04629); details: Compound concentration 100.0 nM
[43] = target: Wee1-like protein kinase (Homo sapiens) (UniProt P30291); details: Compound concentration 100.0 nM
[44] = target: D(3) dopamine receptor (Homo sapiens) (UniProt P35462); details: Compound concentration 10.0 uM
[45] = target: Kappa-type opioid receptor (Homo sapiens, UniProt P41145); details: Compound concentration 10.0 uM

Sequence of Serine/threonine-protein kinase 24 (Homo sapiens) (Q9Y6E0 whole entry, looked up): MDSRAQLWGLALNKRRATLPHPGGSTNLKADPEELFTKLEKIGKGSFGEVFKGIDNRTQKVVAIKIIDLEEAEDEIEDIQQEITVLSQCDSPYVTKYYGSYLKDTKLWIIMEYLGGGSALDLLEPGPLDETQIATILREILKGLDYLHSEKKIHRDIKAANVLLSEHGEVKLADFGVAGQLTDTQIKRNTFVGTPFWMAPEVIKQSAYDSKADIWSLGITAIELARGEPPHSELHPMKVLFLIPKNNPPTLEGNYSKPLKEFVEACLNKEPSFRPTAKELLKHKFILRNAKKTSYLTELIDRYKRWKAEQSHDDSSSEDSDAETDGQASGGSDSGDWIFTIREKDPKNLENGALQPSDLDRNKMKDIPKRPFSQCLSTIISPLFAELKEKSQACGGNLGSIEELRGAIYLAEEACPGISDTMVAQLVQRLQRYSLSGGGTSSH
Sequence of Ephrin type-A receptor 8 (Homo sapiens) (P29322 whole entry): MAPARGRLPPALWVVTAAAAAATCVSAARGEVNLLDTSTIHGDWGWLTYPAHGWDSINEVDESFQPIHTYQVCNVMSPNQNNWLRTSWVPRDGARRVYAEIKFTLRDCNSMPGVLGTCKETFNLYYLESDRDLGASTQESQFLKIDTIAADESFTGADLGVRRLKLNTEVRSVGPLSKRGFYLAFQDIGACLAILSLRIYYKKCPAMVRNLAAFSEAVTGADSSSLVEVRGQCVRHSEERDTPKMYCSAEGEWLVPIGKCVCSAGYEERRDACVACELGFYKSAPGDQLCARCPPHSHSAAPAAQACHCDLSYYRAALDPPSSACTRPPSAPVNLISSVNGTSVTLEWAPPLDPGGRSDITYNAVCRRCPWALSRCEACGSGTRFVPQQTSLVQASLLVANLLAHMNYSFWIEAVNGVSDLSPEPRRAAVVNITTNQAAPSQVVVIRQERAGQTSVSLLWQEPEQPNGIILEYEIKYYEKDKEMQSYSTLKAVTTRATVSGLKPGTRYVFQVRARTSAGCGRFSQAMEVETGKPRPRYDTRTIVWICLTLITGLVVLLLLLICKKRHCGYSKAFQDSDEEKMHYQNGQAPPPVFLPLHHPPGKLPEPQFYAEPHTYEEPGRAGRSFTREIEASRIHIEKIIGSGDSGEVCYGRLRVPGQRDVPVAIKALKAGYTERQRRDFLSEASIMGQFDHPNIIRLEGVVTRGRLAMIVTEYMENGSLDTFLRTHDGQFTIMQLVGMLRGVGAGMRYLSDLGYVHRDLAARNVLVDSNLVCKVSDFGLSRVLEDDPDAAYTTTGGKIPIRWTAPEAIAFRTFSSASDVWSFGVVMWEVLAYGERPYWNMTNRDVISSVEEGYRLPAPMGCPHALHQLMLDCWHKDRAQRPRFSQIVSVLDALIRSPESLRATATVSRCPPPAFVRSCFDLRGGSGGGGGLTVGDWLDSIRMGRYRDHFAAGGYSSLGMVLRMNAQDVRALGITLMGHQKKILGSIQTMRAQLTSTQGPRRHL
Sequence of eIF-2-alpha kinase GCN2 (Homo sapiens), Q9P2K8 [S808G] (Q9P2K8 whole entry S808G): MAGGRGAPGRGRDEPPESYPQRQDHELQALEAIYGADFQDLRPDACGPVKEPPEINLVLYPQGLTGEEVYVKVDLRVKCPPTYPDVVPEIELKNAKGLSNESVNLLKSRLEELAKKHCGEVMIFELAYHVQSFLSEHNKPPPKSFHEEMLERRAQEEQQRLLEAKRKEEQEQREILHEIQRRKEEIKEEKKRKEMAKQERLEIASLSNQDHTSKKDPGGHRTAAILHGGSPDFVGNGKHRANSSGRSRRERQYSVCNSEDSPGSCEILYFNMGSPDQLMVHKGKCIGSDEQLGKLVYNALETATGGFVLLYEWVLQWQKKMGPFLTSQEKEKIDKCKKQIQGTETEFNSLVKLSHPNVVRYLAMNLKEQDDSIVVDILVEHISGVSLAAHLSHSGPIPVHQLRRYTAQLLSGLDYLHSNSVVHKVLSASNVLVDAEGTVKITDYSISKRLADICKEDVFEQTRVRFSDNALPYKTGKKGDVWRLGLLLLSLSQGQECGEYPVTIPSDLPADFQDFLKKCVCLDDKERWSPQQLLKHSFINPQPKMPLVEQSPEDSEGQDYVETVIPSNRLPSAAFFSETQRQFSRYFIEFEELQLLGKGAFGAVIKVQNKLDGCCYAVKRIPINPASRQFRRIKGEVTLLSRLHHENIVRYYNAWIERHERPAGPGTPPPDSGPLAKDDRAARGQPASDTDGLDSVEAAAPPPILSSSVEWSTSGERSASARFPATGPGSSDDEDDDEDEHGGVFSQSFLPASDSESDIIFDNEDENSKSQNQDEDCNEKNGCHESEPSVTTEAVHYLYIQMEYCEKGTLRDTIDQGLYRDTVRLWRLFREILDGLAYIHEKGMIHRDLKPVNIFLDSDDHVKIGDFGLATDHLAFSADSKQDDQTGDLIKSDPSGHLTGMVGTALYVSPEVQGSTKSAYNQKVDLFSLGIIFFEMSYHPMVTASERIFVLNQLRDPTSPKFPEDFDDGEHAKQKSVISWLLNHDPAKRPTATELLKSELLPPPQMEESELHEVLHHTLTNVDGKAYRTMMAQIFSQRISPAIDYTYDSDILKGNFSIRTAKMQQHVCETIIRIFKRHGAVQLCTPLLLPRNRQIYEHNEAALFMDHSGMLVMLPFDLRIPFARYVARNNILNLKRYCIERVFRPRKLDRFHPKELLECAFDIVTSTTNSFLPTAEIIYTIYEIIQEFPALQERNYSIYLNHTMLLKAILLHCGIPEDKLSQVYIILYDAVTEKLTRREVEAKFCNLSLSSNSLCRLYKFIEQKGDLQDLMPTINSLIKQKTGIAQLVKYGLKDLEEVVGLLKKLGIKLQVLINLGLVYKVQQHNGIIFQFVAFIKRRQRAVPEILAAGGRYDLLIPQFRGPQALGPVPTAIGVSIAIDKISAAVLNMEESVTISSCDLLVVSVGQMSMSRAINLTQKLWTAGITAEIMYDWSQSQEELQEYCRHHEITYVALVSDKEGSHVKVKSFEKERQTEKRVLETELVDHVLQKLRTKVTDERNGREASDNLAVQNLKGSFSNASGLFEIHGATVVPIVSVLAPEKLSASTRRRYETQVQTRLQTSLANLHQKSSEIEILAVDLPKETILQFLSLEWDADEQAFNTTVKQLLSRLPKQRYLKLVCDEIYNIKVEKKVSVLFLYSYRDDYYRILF
Sequence of Tyrosine-protein kinase JAK1 (Homo sapiens) (P23458 whole entry, the tested form may be a part): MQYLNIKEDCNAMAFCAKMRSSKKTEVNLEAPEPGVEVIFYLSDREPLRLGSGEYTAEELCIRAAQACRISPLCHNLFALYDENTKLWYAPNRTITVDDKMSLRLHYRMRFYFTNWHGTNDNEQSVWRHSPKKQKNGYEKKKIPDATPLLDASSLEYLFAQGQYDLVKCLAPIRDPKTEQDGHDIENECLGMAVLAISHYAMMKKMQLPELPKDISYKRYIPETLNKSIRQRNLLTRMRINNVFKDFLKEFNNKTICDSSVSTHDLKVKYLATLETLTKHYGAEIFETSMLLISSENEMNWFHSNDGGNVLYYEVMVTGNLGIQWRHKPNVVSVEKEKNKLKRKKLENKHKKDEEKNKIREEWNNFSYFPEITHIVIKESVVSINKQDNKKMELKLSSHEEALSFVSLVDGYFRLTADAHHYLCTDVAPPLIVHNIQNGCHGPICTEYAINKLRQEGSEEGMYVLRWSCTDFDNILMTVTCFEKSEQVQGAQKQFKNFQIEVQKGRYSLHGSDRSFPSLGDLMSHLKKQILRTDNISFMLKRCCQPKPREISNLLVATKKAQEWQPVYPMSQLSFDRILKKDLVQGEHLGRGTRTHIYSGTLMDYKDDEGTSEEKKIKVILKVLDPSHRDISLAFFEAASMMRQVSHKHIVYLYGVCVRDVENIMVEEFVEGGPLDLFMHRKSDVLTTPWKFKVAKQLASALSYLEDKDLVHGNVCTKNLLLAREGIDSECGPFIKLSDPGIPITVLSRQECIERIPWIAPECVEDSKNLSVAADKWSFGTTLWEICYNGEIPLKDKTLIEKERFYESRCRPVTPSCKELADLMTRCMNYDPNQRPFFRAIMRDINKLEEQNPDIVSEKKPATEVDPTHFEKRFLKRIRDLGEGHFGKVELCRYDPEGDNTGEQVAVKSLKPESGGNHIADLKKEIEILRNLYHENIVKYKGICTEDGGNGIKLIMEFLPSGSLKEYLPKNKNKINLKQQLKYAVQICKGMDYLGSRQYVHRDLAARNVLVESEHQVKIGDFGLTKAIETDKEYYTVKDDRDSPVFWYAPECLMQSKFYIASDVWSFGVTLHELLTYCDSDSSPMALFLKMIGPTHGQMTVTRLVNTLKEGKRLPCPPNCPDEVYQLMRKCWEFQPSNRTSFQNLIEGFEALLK
Sequence of Cyclin-dependent kinase 8 (Homo sapiens) (P49336 whole entry): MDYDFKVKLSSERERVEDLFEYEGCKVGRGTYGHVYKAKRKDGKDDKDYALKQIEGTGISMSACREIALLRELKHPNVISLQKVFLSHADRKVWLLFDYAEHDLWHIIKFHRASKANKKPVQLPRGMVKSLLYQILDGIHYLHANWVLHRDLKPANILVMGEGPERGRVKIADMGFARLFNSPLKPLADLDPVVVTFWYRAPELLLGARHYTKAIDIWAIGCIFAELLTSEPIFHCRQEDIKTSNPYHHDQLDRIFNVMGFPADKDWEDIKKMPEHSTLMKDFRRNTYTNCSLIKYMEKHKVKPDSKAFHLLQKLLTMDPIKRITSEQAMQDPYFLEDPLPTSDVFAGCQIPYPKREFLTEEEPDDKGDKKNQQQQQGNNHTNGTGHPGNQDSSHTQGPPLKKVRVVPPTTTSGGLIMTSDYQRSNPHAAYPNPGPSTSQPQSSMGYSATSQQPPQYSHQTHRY
Sequence of Serine/threonine-protein kinase 16 (Homo sapiens) (O75716 whole entry): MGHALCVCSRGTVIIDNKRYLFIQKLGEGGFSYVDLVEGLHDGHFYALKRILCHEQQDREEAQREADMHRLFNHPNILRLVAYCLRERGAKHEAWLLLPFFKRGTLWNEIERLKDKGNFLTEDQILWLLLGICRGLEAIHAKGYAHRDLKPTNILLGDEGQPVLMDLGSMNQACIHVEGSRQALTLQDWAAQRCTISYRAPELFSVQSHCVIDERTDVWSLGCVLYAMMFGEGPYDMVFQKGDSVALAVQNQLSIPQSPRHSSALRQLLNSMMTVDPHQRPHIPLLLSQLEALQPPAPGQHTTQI

Nc1c(C(=O)NCc2ccc(C(=O)NCCCC3CCCCC3)cc2)cnn1-c1ccccc1 [SR-318]
residual activity [1]: 87% | residual activity [2]: 100% | residual activity [3]: 100% | residual activity [4]: 100% | residual activity [5]: 100% | residual activity [6]: 96% | residual activity [7]: 100% | residual activity [8]: 100% | residual activity [9]: 100% | residual activity [10]: 100% | residual activity [11]: 100% | residual activity [12]: 90% | residual activity [13]: 100% | residual activity [14]: 99% | residual activity [15]: 100% | residual activity [16]: 100% | residual activity [17]: 100% | residual activity [18]: 100% | residual activity [19]: 100% | residual activity [20]: 100% | residual activity [21]: 100% | residual activity [22]: 94% | residual activity [23]: 82% | residual activity [24]: 91% | residual activity [25]: 100% | residual activity [26]: 96% | residual activity [27]: 81% | residual activity [28]: 100% | residual activity [29]: 100% | residual activity [30]: 100% | residual activity [31]: 100% | residual activity [32]: 100% | residual activity [33]: 100% | residual activity [34]: 100% | residual activity [35]: 100% | residual activity [36]: 100% | residual activity [37]: 100% | residual activity [38]: 96% | residual activity [39]: 100% | residual activity [40]: 100% | residual activity [41]: 91% | residual activity [42]: 100% | residual activity [43]: 100% | inhibition [44]: 21.2% | inhibition [45]: 38.6%

O=C(NCCCC1CCCCC1)c1ccc(CNC(=O)c2cnn(-c3ccccc3)c2C(F)(F)F)cc1 [SR-321]
residual activity [1]: 100% | residual activity [2]: 80% | residual activity [3]: 87% | residual activity [4]: 100% | residual activity [5]: 100% | residual activity [6]: 97% | residual activity [7]: 80% | residual activity [8]: 100% | residual activity [9]: 100% | residual activity [10]: 100% | residual activity [11]: 99% | residual activity [12]: 100% | residual activity [13]: 95% | residual activity [14]: 100% | residual activity [15]: 100% | residual activity [16]: 100% | residual activity [17]: 100% | residual activity [18]: 100% | residual activity [19]: 100% | residual activity [20]: 100% | residual activity [21]: 88% | residual activity [22]: 100% | residual activity [23]: 98% | residual activity [24]: 100% | residual activity [25]: 100% | residual activity [26]: 93% | residual activity [27]: 70% | residual activity [28]: 100% | residual activity [29]: 100% | residual activity [30]: 100% | residual activity [31]: 100% | residual activity [32]: 100% | residual activity [33]: 100% | residual activity [34]: 93% | residual activity [35]: 100% | residual activity [36]: 100% | residual activity [37]: 100% | residual activity [38]: 99% | residual activity [39]: 100% | residual activity [40]: 100% | residual activity [41]: 88% | residual activity [42]: 100% | residual activity [43]: 97% | inhibition [44]: 2.65% | inhibition [45]: 80.2%
